Test system: tumeur M₄
Assay: Inhibition of development of lung metastases (M4 tumour cells injected i.v. with peptide)
Format: in vivo, souris C57BL/6
Details: injected in tail vein with 10⁵ M₄ cells, lung colonies counted after 15 days, PBS control 117,5 ± 14,4
Experimental: On a utilisé la tumeur M₄, une sous-lignée obtenue par sélection d'un sarcome induit par le benzopyrène chez la souris C57BL/6 (Mantovani Int. J. Cancer, 22, 741, 1978).
Les cellules M₄ ont été désagrégées avec de la DNAse et de la collagènase pendant 30 minutes à 37°C. On a lavé les cellules deux fois avec du PBS et on les a remis en suspension dans le même tampon à la concentration de […]. On a injecté lentement dans le veine de la queue de souris C57BL/6 0,2 ml de PBS contenant différentes concentrations de peptide et 10⁵ cellules M₄/souris.
Au bout de 15 jours on a tué les souris et excisé les poumons, et on les a fixés avec une solution de Bouin. On a compté visuellement les colonies. Les résultats obtenus avec le peptide KQRGDF sont donnés dans le tableau suivant.

Substance: H-KQRGDF-OH [KQRGDF, H-Lys-Gln-Arg-Gly-Asp-Phe-OH]
- Nombre de colonie (0,75 mg/souris): 25,3 ± 9,4
- Nombre de colonie (1,5 mg/souris): 0,2
- Nombre de colonie (3,0 mg/souris): 0
